Structures can show the parent of a compound that is named as a salt.
Experiments:
Assay type in all cases: physicochemical
[1] = Modulated DSC glass transition temperature; conditions: mDSC, reversing heat flow versus temperature
Experimental: FIG. 5 is a modulated DSC (mDSC) plot of reversing heat flow versus temperature, illustrating the heat flow for one embodiment of the spray-dried formulation and showing that the glass transition temperature (Tg) for that embodiment is 108.3° C.
FIG. 10 is an mDSC plot of reversing heat flow versus temperature, illustrating the heat flow for a […] sample of compound I-1, and showing that the glass transition temperature (Tg) for the […] sample is 106.1° C.

[2] = DVS isotherm, spray-dried formulation versus crystalline compound I-1; conditions: DVS at 25° C.; crystalline compound I-1 compared with the spray-dried dispersion
Experimental: (§1) FIG. 1 is a dynamic vapor sorption (DVS) plot of percent change in mass versus target relative humidity (RH), illustrating the change in mass of one embodiment of the disclosed spray-dried formulation at 25° C. under various relative humidity conditions. The plot provides two isotherms: 1 is the sorption plot, illustrating the change in mass with increasing relative humidity steps; and 2 is the desorption plot, illustrating the change in mass with decreasing relative humidity steps.
as §1, with “FIG. 6” for “FIG. 1”, “a DVS” for “a dynamic vapor sorption (DVS)”, “relative humidity,” for “relative humidity (RH),”, “of a crystalline sample of compound I-1” for “of the disclosed spray-dried formulation”
FIGS. 1-10 provide structural and stability data concerning the spray-dried formulation (FIGS. 1-5) and a crystalline sample of compound I-1 (FIGS. 6-10). FIGS. 1 and 6 provide DVS isotherm plots for the spray-dried formulation and crystalline compound, respectively.

[3] = Hygroscopicity evaluation by DVS of salts of I-18; conditions: 25° C., judged from uptake at 80% RH
Experimental: To investigate the solid form stability as a function of humidity, DVS isotherm plot of the K salt, Arginine salt, Choline salt and Tris salt were collected at 25° C. between 0 and 95% RH.

[4] = Physical and chemical stability of salts of I-18, 1 week (XRPD, HPLC purity); conditions: for Area (%) of HPLC peak RRT 1.00: main peak; for Area (%) of HPLC peak RRT 1.17: peak = parent compound formed by hydrolysis; for Form change: XRPD
Experimental: The physical and chemical stability of the K salt, Arginine salt, Choline salt and Tris salt were evaluated under conditions of 25° C./60% RH and 40° C./75% RH for 1 week. Each sample was added into 3 mL glass vials, sealed by parafilm with several holes, and kept under tested condition. After one week, samples was taken for XRPD and HPLC purity test.

[5] = 25° C./60% RH, 1 week, listed as arginine salt
[6] = 40° C./75% RH, 1 week, listed as arginine salt
[7] = Initial, listed as arginine salt

CCO[C@H]1CC[C@H](n2cc(NC(=O)c3csc(-c4cn[nH]c4)n3)c(-c3nc(F)ccc3F)n2)CC1 [I-1, N-(3-(3,6-difluoropyridin-2-yl)-1-((1r,4r)-4-ethoxycyclohexyl)-1H-pyrazol-4-yl)-2-(1H-pyrazol-4-yl)thiazole-4-carboxamide]
glass transition temperature (Tg) [1]: 106.1 °C | change in mass when exposed to higher relative humidity [2]: substantially smaller change in mass

CCO[C@H]1CC[C@H](n2cc(NC(=O)c3csc(-c4cnn(C(C)OP(=O)(O)O)c4)n3)c(-c3nc(F)ccc3F)n2)CC1 (some centres unmarked) [I-110, 1-(4-(4-((3-(3,6-difluoropyridin-2-yl)-1-((1r,4r)-4-ethoxycyclohexyl)-1H-pyrazol-4-yl)carbamoyl)thiazol-2-yl)-1H-pyrazol-1-yl)ethyl dihydrogen phosphate arginine salt]
hygroscopicity [3]: slight hygroscopic | Area (%) of HPLC peak RRT 1.13 ([4]; 25° C./60% RH, 1 week): 0.06% | Area (%) of HPLC peak RRT 0.77 [4, 5]: 0.03% | Area (%) of HPLC peak RRT 1.35 [4, 5]: 0.06% | Area (%) of HPLC peak RRT 1.45 [4, 5]: 0.50% | Area (%) of HPLC peak RRT 1.71 [4, 5]: 0.74% | Area (%) of HPLC peak RRT 1.73 [4, 5]: 0.61% | HPLC purity change [4, 5]: slight purity decrease | Area (%) of HPLC peak RRT 1.00 [4, 5]: 95.31% | Area (%) of HPLC peak RRT 1.17 [4, 5]: 2.68% | Form change ([4]; 25° C./60% RH/1 week, listed as Arginine salt): no form change and No | Area (%) of HPLC peak RRT 1.13 ([4]; 40° C./75% RH, 1 week): 0.06% | Area (%) of HPLC peak RRT 0.77 [4, 6]: 0.04% | Area (%) of HPLC peak RRT 1.35 [4, 6]: 0.11% | Area (%) of HPLC peak RRT 1.45 [4, 6]: 0.47% | Area (%) of HPLC peak RRT 1.71 [4, 6]: 0.73% | Area (%) of HPLC peak RRT 1.73 [4, 6]: 0.60% | HPLC purity change [4, 6]: slight purity decrease | Area (%) of HPLC peak RRT 1.00 [4, 6]: 95.50% | Area (%) of HPLC peak RRT 1.17 [4, 6]: 2.48% | Form change ([4]; 40° C./75% RH/1 week, listed as Arginine salt): no form change and No | Initial purity (area %) ([4]; HPLC, before storage, listed as Arginine salt): 95.91 area % | Area (%) of HPLC peak RRT 1.35 ([4]; Initial): <0.03% | Area (%) of HPLC peak RRT 0.77 [4, 7]: <0.03% | Area (%) of HPLC peak RRT 1.13 [4, 7]: <0.03% | Area (%) of HPLC peak RRT 1.45 [4, 7]: 0.44% | Area (%) of HPLC peak RRT 1.71 [4, 7]: 0.73% | Area (%) of HPLC peak RRT 1.73 [4, 7]: <0.53% | Area (%) of HPLC peak RRT 1.00 [4, 7]: 95.91% | Area (%) of HPLC peak RRT 1.17 [4, 7]: 2.39%
